# Test results: US20070203079A1, “Methods of using small molecule compounds for neuroprotection” (priority 2005, published 2007)
# Structures can show the parent of a compound that is named as a salt. Marks after values point to notes of the source that are not given here.
# Tests used:
# Type in all cases: in vivo, C. elegans
# [1] = system: transgenic worms containing the transgene Pdat-1::GFP without any torsinA expression; experiment: 6-OHDA dopaminergic neurodegeneration in worms without torsinA; conditions: no torsinA expression
# [2] = system: transgenic worm line Pdat-1::CAT-2; experiment: Neurodegeneration by overexpression of cat-2 (tyrosine hydroxylase)
# Excerpt: Overexpression of cat-2, the worm homologue for tyrosine hydroxylase, results in increased intraneuronal dopamine production and a characteristic loss of dopaminergic neurons in 75% of transgenic worms as compared to wild type (Cao et al., J Neurosci, 25(1):3801-3812). Co-expression of worm or human torsin proteins reduces the loss of dopaminergic neurons to a slight degree although neuronal degeneration is still present. The purpose of these experiments was to determine the effect of small molecule compounds in the Prestwick library in another different C. elegans model of neurodegeneration.
# Worms were cultured using the same methods described above. A transgenic worm line expressing Pdat-1::CAT-2 expresses a phenotype that results in visible neurodegeneration at all developmental stages in an integrated line, in which only approximately 55% of 7 day old animals maintained all four CEP neurons. […] Compound 166 is an example of one such compound.
# To further examine the neuroprotective effect of meclofenamic acid and lidocaine, we used a transgenic line (Pdat-1::CAT-2) we previously described (Cao et al., J Neurosci, 2005, 25(1): 3801-3812). Overexpression of cat-2, the C. elegans homolog of the tyrosine hydroxylase (“TH”) gene, causes a high level of DA production and as a result, DA neuron degeneration is observed (Cao et al., J Neurosci, 2005, 25(1): 3801-3812). […] We also tested whether meclofenamic acid was able to suppress CAT-2-induced neurodegeneration. […] Therefore, meclofenamic acid can protect DA neurons from degeneration produced by overexpression of the dopamine precursor, tyrosine hydroxylase.
# [3] = system: GFP::DAT-1; experiment: Pdat-1::GFP::DAT-1 expression within DA neurons; conditions: for Neurons with cell body and dendritic/axonal GFP: water control 70%; for Neurons with cell body and dendritic/axonal GFP / Mean pixel intensity of cell bodies ± SEM (fluorescence intensity): HCl; for Mean pixel intensity of cell bodies ± SEM (fluorescence intensity): water control 1970 ± 80, compounds at 1.85, 1.49, 1.86 mM
# [4] = system: worms expressing Punc-54::Q82::GFP+Punc-54::torsinA (ΔE) with a mutant torsinA only; experiment: Protein aggregate assay in worms with mutant torsinA only
# Experimental: (§1) C elegans nematodes were grown at 20° C. on NGM plates as described by Brenner (Brenner, Genetics, 1974, 77: 71-94). Several transgenic C. elegans lines were used for primary screens of the Prestwick small molecule library. A transgenic worm line expressing Punc-54::Q82-GFP; with both wild type (“wt”) (Punc=54: :torsinA) or mutant (Punc-54::torsinA(ΔE)). Torsin-A expresses a phenotype that results in visible protein aggregation under fluorescent microscope. Transgenic worms were plated on drug plates and progeny were studied for a return to soluble protein. […]
# (§2) The screening assays used to identify the compounds use protein aggregation readouts to determine the specificities of molecular action. […]
# (§3) The methods for the aggregate analysis assay are described in Caldwell et al. (Hum Mol Genetics, 2003, 12(3): 307-319). […] MetaMorph Software (Universal Imaging Inc.) was used for pseudocoloration of images, image overlay, and aggregate size quantitation. For each worm line analyzed, average aggregate size was determined by capturing images of all aggregates in the posterior region of 30 L3-staged animals (for Q82::GFP aggregates) or all aggregates in 30 adult animals/day (for Q19::GFP analyses) at 1000× magnification. […]
# [5] = system: protein misfolding and aggregation in transgenic worms; experiment: Preventative assay of protein aggregation (drug from hatching to L2 stage); conditions: exposure from hatching to L2 stage; scored at L3 and young adult
# Experimental: (§4) To see the preventative effects of the candidate drug compounds on protein misfolding and aggregation, five gravid adult worms were placed onto each drug plate and grown at 20° C. for approximately 3 days. 35-40 Fl worms at L2 stage were picked and transferred to a control plate with the same concentration of control solvent compared to the drug plate. Thirty worms at L3 stage were counted for aggregate number 8 hours later. Thirty young adults were analyzed 32 hours later.
# (§5) To calculate the scaled effectiveness of special regimen of drugs on worms based on standardized decrease in protein aggregates. The following formula was used: (A−B)/(A−C)×100%, where
# (§6) A=number of aggregates for worms growing on solvent control plates
# (§7) B=number of aggregates for worms grown on the specific drug plate for the entire life of the worms
# C=number of aggregates for worms that received pre-L2 exposure and were then removed to solvent control plates
# (§8) If the regimen has no effect, the value would equal 0%. Conversely, if the regimen was as effective as raising the worms on the drug for their entire life, the value would equal 100%.
# [6] = system: protein misfolding and aggregation in transgenic worms; experiment: Corrective assay of protein aggregation (drug from L2 stage onward); conditions: drug exposure from L2 stage onward; scored at L3 and young adult
# Experimental: as §4, with “corrective effect” for “preventative effects”, “a solvent control” for “each drug”, “a” for “a control plate with the same concentration of control solvent compared to the”
# as §5, §6, §7
# C=number of aggregates for worms that received exposure from L2 stage (until adulthood)
# as §8
# [7] = system: Pdat-1::GFP+Pdat-1::α-synuclein+Pdat-1::torsinA worms; experiment: α-synuclein toxicity assay, wt torsinA
# Excerpt: (§9) We have previously shown that torsinA can prevent dopamine (“DA”) neuron degeneration resulting from overexpression of α-synuclein in the DA neurons of C. elegans, while torsinA (“ΔE”) has a reduced neuroprotection (Cao et al., J Neurosci, 2005, 25(1): 3801-3812). Specifically, only 26.1±5.3% of the worms expressing Pdat-1::GFP+Pdat-1::α-synuclein maintained all 4 wildtype CEP DA neurons as 4 day adults while the percentages of the worms expressing Pdat-1::GFP+Pdat-1::α-synuclein+Pdat-1::torsinA and Pdat-1::GFP+Pdat-1::α-synuclein+Pdat-1:: torsinA (ΔE) are 57.3±1.6% and 42.2±7.3%, respectively (Cao et al., J Neurosci, 2005, 25(1): 3801-3812) (FIG. 8).
# (§10) All molecules are coded by Prestwick Library number. TorsinA-dependent compounds identified from the aggregation assay have torsinA-specific effects and, therefore, are likely to function in the same manner in the α-synuclein toxicity assay. All three α-synuclein transgenic lines were exposed to the five torsinA-dependent compounds to determine their torsinA-specificity (FIG. 9). As expected, none of these compounds had any effect in Pdat-1::GFP+Pdat-1::α-synuclein when torsinA expression is absent.
# [8] = system: Pdat-1::GFP+Pdat-1::α-synuclein+Pdat-1:: torsinA (ΔE) worms; experiment: α-synuclein toxicity assay, mutant torsinA
# Excerpt: as §9, §10
# [9] = system: transgenic worms containing the transgene Punc-54::Q82::GFP without any torsinA expression; experiment: Protein aggregate assay in worms without torsinA expression
# Experimental: as §1, §2, §3
# [10] = system: worms containing Pdat-1::GFP+Pdat-1::torsinA+Pdat-1::torsinA (ΔE) after 6-OHDA exposure; experiment: 6-OHDA dopaminergic neurodegeneration in worms with wt and mutant torsinA; conditions: wt and mutant torsinA co-expressed; 6-OHDA insult
# Excerpt: Previous studies have established that the “CEP” and “ADE” mechanosensory neurons in C. elegans undergo readily discernable neuronal degeneration after treatment with the dopamine-selective neurotoxin 6-OHDA (Nass et al, 2002). The toxicity of 6-OHDA is mediated through the formation of reactive oxygen species by the generation of hydrogen peroxide and […] via a nonenzymatic auto-oxidation process (Kumar et al., 1995; Foley and Riederer, 2000). […] This degeneration can be monitored in living animals by coexpressing with green fluorescent protein and categorized into three temporally and morphologically distinct stages, including neuronal process blebbing, cell body rounding with process loss, and cell body loss. These characteristic changes reproducibly appear in this order within a few hours, recapitulating observations in MPTP-treated monkeys and in 6-OHDA-treated rats, in which damage to striatal terminals leads to retrograde changes and precedes that of SNpc cell bodies (Berger et al., 1991; Herkenham et al., 1991). The actions of torsin protein in 6-OHDA-mediated neurodegeneration has recently been shown (Cao et al., J Neurosci, 25(1):3801-3812). Animals were treated with various concentrations of 6-OHDA and neurodegeneration was followed over time, as worms develop and age, by co-expression of a dopamine GFP marker in these transparent animals.
# C. elegans nematodes were grown at 25° C. on NGM plates as described by Brenner (Brenner, Genetics, 1974, 77: 71-94). Two transgenic C. elegans lines were used for primary screens of the Prestwick small molecule library. A transgenic worm line expressing Pdat-1::GFP; with both wild type (Pdat-1::torsinA) or mutant (Pdat-1:::torsinA(ΔE)). Torsin-A expresses a phenotype that results in visible neurodegeneration after treatment with 6-OHDA. Transgenic worms were plated on drug plates and progeny were studied for morphological changes in the 8 dopaminergic neurons present in C. elegans.
# Drugs were administered to C. elegans according to a standard procedure (Rand and Johnson, Methods Cell Biol, 1995, 48: 187-204) by mixing the solubilized drug with the agar medium on which the worms are grown. This mode of administration allows the continuous exposure of worms to the drug.
# Each drug was first dissolved in an appropriate solvent, followed by adding the drug solution into pre-autoclaved media, with the volume of drug solution already taken into account. All drugs were tested at 0.5 mg/ml initial concentration, a few of which were toxic to worms and then tested at 0.1 mg/ml or 0.025 mg/ml concentration. Each plate was seeded with 100 μl concentrated E. coli OP50 bacteria
# Age-synchronized worms were obtained by treating gravid adults with 2% sodium hypochlorite and 0.5M NaOH to isolate embryos (Lewis Fleming, 1995). These embryos were grown for 30 h at 25° C. At the L3 stage, larvae were incubated with 10 mM (50 mM) 6-OHDA and 2 mM (or 10 mM) ascorbic acid for 1 h with gentle agitation every 10 minutes. (Nass et al., 2002). The worms were then washed and spread onto NGM plates seeded with bacteria (OP50) and scored at time points ranging from 2 to 72 h after 6-OHDA exposure.
# Immediately after 6-OHDA treatment, worms containing the transgenes were selected under a fluorescence dissecting microscope, based on the presence of GFP, and transferred to a fresh NGM plate seeded with OP50. For each time point, 30-40 worms were applied to a 2% agarose pad and immobilized with 3 mM levamisole. Worms were examined under a Nikon Eclipse E800 epifluorescence microscope equipped with an Endow GFP filter cube (Chroma Technology, Rockingham, Vt.). For ease of analysis, only the four CEP DA neurons in the head of the worm were scored. […]
# [11] = Pdat-1::GFP::DAT-1, listed as Lidocaine hydrochloride
compound,measurement,setting,value
"CCN(CC)CC(=O)Nc1c(C)cccc1C [Compound 50, lidocaine HCl]",reduction of 6-OHDA-mediated neurodegeneration,[1],reduced the 6-OHDA-mediated neurodegeneration
same,neuroprotective effect against CAT-2-induced neurodegeneration,[2]; Pdat-1::CAT-2,−7.9%
same,Worms with no GFP,"[3]; Pdat-1::GFP::DAT-1, water control 0%",0%
same,Neurons with cell body GFP only,"[3]; Pdat-1::GFP::DAT-1, water control 30%",70%^e
same,Neurons with cell body and dendritic/axonal GFP,[3]; Pdat-1::GFP::DAT-1,30%
same,Neurons with cell body and dendritic/axonal GFP,[3]; [11],30%^d
same,Mean pixel intensity of cell bodies ± SEM (fluorescence intensity),[3]; Pdat-1::GFP::DAT-1,1612 A.U.
same,Mean pixel intensity of cell bodies ± SEM (fluorescence intensity),[3]; [11],1612 ± 78 A.U.
same,effect on GFP::DAT-1 level,[3]; result in words,can down-regulate the level of DAT-1 protein directly
"CN(C)C(=O)C(CCN1CCC(O)(c2ccc(Cl)cc2)CC1)(c1ccccc1)c1ccccc1 [Compound 144, Loperamide HCl]",reduction of aggregation,[4],reduced aggregation
same,preventative effect on protein aggregation,[5],seem to be beneficial
same,corrective effect on protein aggregation,[6],seem to be beneficial
same,enhanced wild type DA neuron survival,[7],failed to show any significant neuroprotection
same,enhanced DA neuron survival,[8],39.5±1.4%
"NCc1ccc(S(N)(=O)=O)cc1 [Compound 166, Mafenide]",reduction of protein aggregates,[9],reduced the presence of protein aggregates
same,neuroprotection of dopaminergic neurons against 6-OHDA,[10],little to no neuroprotection
same,neuroprotective action on dopaminergic neurons overexpressing cat-2,"[2]; Pdat-1::CAT-2, result in words",demonstrated a reduction in the standardized decrease in dopaminergic neurodegeneration
